# Patent US20250170090A1, “METHOD FOR PREVENTING OR TREATING DISEASE OR DISORDER ASSOCIATED WITH ANTINEOPLASTIC AGENT” (ONQUALITY PHARMACEUTICALS CHINA LTD., priority 2022, published 2025)
# Where two headings read alike, the source gives them in different places.
# Tested on: HUVEC cells
# Assay: CCK-8 cell viability: alleviation of proliferative toxicity of anti-tumor agents on HUVEC cells (Tables 7-1, 7-2)
# Assay type: cell-based
# Settings: Homo sapiens, 24 h, NO-NSAID 100 μM, percentage increase in viable cells vs anti-tumor agent alone, read-out: Response rate % (average)
# Method: The cultured HUVEC cells were digested the suspended, counted, and seed into a 96-well plate with 5,000-10,000 cells per well. The wells are divided into the following groups: blank control group, anti-tumor agent group, anti-tumor agent+NO-NSAID group, anti-tumor agent solvent group, NO-NSAID control group. Wherein each well of each group contained a basic medium, and the final liquid volume contained in each well was about 100 μL. The grouping situation was as follows: • 1) Blank control group: no solution was added except normally replacing the medium; • 2) Anti-tumor agent group: added the anti-tumor agent solution (the final concentration was shown in Table 7-1 and Table 7-2, the solvent of the anti-tumor agent solution was DMSO); • 3) Anti-tumor agent+NO-NSAID group: added the anti-tumor agent solution and the NO-NSAID solution (the final concentrations of anti-tumor agent and NO-NSAID were shown in Table 7-1 and Table 7-2, and according to the solubility of NO-NSAID, the solvent of NO-NSAID solution was selected as ethanol or sterile water, and minor volume differences in each group were adjusted by added the corresponding solvent); • 4) Anti-tumor agent solvent group: an equal volume of DMSO as contained in the corresponding anti-tumor agent solution in Group 2) was added; • 5) NO-NSAID control group: the same volume and type of solvent (for example, ethanol or sterile water) corresponding to the NO-NSAID contained in group 3) was added.
# The anti-tumor agent solvent group was not involved in data processing and was only used as a reference for evaluating experimental system error. The NO-NSAID solvent control group was used for data correction to eliminate the influence of the solvent on the results.
# After culturing for 24-48 hours, the Cell Counting Kit-8 (CCK-8) detection kit (C0037, Shanghai Beyotime Biotechnology Co., Ltd., Beyotime Biotechnology) was used to determine the cell viability. This allows for the calculation of the proliferative toxicity of anti-tumor agent on cell and the mitigating effect of NO-NSAID on proliferative toxicity. The results were statistically analyzed and plotted using GraphPad Prism 6.0 software and t test.
structure (smiles),measurement,setting,value
CC(=O)Oc1ccccc1C(=O)OCc1no[n+]([O-])c1C(N)=O [Compound A6],activation at 100 µM,Afatinib (10 μM),45%
same,activation at 100 µM,Anlotinib (5 μM),50%
same,activation at 100 µM,Apatinib (10 μM),41%
same,activation at 100 µM,Axitinib (10 μM),22%
same,activation at 100 µM,Cabozantinib (5 μM),0%
same,activation at 100 µM,Dabrafenib (10 μM),21%
same,activation at 100 µM,Dacomitinib (5 μM),75%
same,activation at 100 µM,Encorafenib (5 μM),51%
same,activation at 100 µM,Erdafitinib (10 μM),56%
same,activation at 100 µM,Everolimus (5 μM),52%
same,activation at 100 µM,Famitinib (5 μM),66%
same,activation at 100 µM,Fruquintinib (10 μM),53%
same,activation at 100 µM,Gefitinib (10 μM),77%
same,activation at 100 µM,Infigratinib (15 μM),32%
same,activation at 100 µM,Lapatinib (5 μM),41%
same,activation at 100 µM,Lenvatinib (10 μM),23%
same,activation at 100 µM,Olmutinib (10 μM),28%
same,activation at 100 µM,Regorafenib (5 μM),66%
same,activation at 100 µM,Selumetinib (5 μM),64%
same,activation at 100 µM,Sorafenib (5 μM),24%
same,activation at 100 µM,Sunitinib (5 μM),58%
same,activation at 100 µM,Vemurafenib (5 μM),42%
